This is an account of results in patent US9403802B2, “Heterocyclic compound and use therefor” (Takeda Pharmaceutical Company Limited, priority 2012, dated 2016).

In data set [1] the target is T1, human M1 receptor (hCHRM1) (Homo sapiens, UniProt P11229).
T1 construct: expressed in transfected cells; host or cells: CHO-K1
T1 sequence (P11229 1-460): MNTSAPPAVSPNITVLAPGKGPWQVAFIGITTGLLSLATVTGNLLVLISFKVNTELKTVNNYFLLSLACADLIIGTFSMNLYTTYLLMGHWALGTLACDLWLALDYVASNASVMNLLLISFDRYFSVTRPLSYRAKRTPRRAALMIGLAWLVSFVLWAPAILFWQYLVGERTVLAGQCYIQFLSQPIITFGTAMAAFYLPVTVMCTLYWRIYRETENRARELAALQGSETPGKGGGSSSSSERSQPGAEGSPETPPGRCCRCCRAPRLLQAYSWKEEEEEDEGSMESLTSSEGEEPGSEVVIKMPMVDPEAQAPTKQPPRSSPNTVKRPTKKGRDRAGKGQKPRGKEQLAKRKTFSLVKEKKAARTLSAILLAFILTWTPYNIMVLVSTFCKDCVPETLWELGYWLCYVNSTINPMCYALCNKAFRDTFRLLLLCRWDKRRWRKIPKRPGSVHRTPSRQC
Put plainly: Measurement of cholinergic muscarinic M1 receptor positive allosteric modulator (M1PAM) activity, calcium fluorescence (FLIPRtetra). The settings on record: for activity (%) at 10 μM: test compound 10 μM with acetylcholine at EC20 (final 0.6 nM), 100% = acetylcholine 1 μM, 0% = DMSO. Type of data set: cell-based. The protocol:
The activity of a test compound in the presence of acetylcholine at EC20 concentration (final concentration 0.6 nM), which affords an action corresponding to 20% of the maximum activity, was measured as M1PAM activity. The method is as follows. CHO-K1 cells forcibly expressing a human M1 receptor (hCHRM1) were plated on a 384-well black clear bottom plate (BD Falcon) at 5,000 cells/well, and cultured in an incubator at 37° C., 5% CO2 for 1 day. The medium in the cell plate was removed, and assay buffer A (Recording medium (DOJINDO LABORATORIES), 0.1% bovine serum albumin (BSA) (Wako Pure Chemical Industries, Ltd.), 2.5 μg/mL Fluo-4 AM (DOJINDO LABORATORIES), 0.08% Pluronic F127 (DOJINDO LABORATORIES), 1.25 mM probenecid (DOJINDO LABORATORIES)) containing a calcium indicator was added at 30 μL/well. The cells were left standing in the incubator at 37° C., 5% CO2 for 30 min, and further left standing at room temperature for 30 min. A test compound prepared by diluting with assay buffer B (HBSS (Invitrogen), 20 mM HEPES (Invitrogen), 0.1% BSA) containing 2.4 nM acetylcholine was added at 10 μL/well, and the fluorescence was measured by FLIPRtetra (Molecular Devices) for 1 min every 1 second. With the definition that the amount of change in the fluorescence on addition of acetylcholine (final concentration 1 μM) is 100% and that on addition of DMSO instead of a test compound is 0%, the activity (%) of the test compound and the inflection point in the concentration-dependent curve of the test compound were calculated as IP values.

Data set [2] in a line: Central migration (Kp value) measurement test. The class given is in vivo. The following applies: male, Jcl ICR, mouse, brain/plasma, mice, ratio of intracerebral (μg/g) to plasma (μg/mL) concentration; for Kp at 1 h: po, 1 mg/kg, 1 mg/10 mL/kg. The protocol:
A. Compounds of Examples 6 and 10 (Intravenous Administration: i.v.) […]
animal: male Jcl ICR mice 7-week-old n=3 […]
administration conditions: intravenous administration 0.20 mg/l mL/kg (4 compounds/cassette administration) administration medium: N,N-dimethylacetamide (DMA)/1,3-Butanediol (1:1) sample: plasma, brain (homogenate was prepared by adding 4-fold amount of saline) plasma sampling time: 0.25 hr brain sampling time: 0.25 hr […]
animal: male Jcl ICR mice 8-week-old n=3 […]
administration medium: DMA/1,3-Butanediol (1:1) […]
plasma sampling time: 0.5 hr brain sampling time: 0.5 hr […]
column: Shimadzu Shim-pack XR-ODS (2.2 μm, 2.0×30 mm) mobile phase A: 10 mmol/L ammonium formate/formic acid (100:0.2, v/v) mobile phase B: acetonitrile/formic acid (100:0.2, v/v) […]
column temperature: 50° C. sample injection volume: 1 μL (Example 6), 2 μL (Example 10) plasma pre-treatment conditions: A standard solution dissolution solvent (DMSO) or a standard solution (5 μL) was added to a sample (50 μL). Acetonitrile (150 μL) containing the internal standard substance was added, and the mixture was vigorously stirred and centrifuged at 5250 rpm. A dilution solvent (160 μL) was added to the centrifuged supernatant (60 μL). The solution (40 μL) was taken, and the dilution solvent (160 μL) was added to give a sample solution for compound plasma concentration measurement (mobile phase A:mobile phase B=7:3 (v/v) was used as the dilution solvent). brain pre-treatment conditions: The standard solution dissolution solvent (DMSO) or standard solution (5 μL) was added to a sample (50 μL). Acetonitrile (150 μL) containing the internal standard substance was added, and the mixture was vigorously stirred, and centrifuged at 5250 rpm. A dilution solvent (160 μL) was added to the centrifuged supernatant (60 μL). The solution (40 μL) was taken, and the dilution solvent (160 μL) was added to give a sample solution for intracerebral compound concentration measurement (mobile phase A:mobile phase B=7:3 (v/v) was used as the dilution solvent). B. Compounds of Examples 92 and 94 (Oral Administration: p.o.) animal: male Jcl ICR mice 10-week-old n=3 feeding: nonfasting administration conditions: oral administration 1 mg/10 mL/kg (5 compounds/cassette administration) administration medium: 0.5% methylcellulose solution sample: plasma, brain (homogenate was prepared by adding 4-fold amount of saline) plasma sampling time: 1 hr brain sampling time: 1 hr HPLC Analysis Conditions column: Shimadzu Shim-pack XR-ODS (2.2 μm, 2.0×30 mm) mobile phase A: 10 mmol/L ammonium formate/formic acid (100:0.2, v/v) mobile phase B: acetonitrile/formic acid (100:0.2, v/v) flow rate: 0.7 mL/min. column temperature: 50° C. sample injection volume: 1 μL […]

pEC50: −log10 of the molar value. Read-outs that look alike come from different tables or passages of the source.

A word on the Kp: it is tissue or fluid exposure divided by exposure in the circulation. With `O=C(N[C@H]1CCC[C@@H]1O)c1cn(Cc2ccc(-n3cccn3)cc2)c2c(F)cccc2c1=O` (racemic) [Example 92, 8-fluoro-N-[(1,2-trans)-2-hydroxycyclopentyl]-4-oxo-1-[4-(1H-pyrazol-1-yl)benzyl]-1,4-dihydroquinoline-3-carboxamide], the pEC50 in data set [1] was 7.26. The “activity (%) at 10 μM” value in data set [1] (CHO-K1 cells expressing hCHRM1) is given as 104%. Besides, the Kp at 1 h in data set [2] was 0.16.
`Cc1nn(C)cc1-c1ccc(Cn2cc(C(=O)N[C@H]3CCC[C@@H]3O)c(=O)c3ccccc32)cc1` (racemic) [Example 94, 1-[4-(1,3-dimethyl-1H-pyrazol-4-yl)benzyl]-N-[(1,2-trans)-2-hydroxycyclopentyl]-4-oxo-1,4-dihydroquinoline-3-carboxamide]: in data set [1], the pEC50 was 8.07. Moreover, the “activity (%) at 10 μM” value in data set [1] (CHO-K1 cells expressing hCHRM1) came out at 95%. In addition, in data set [2], the Kp at 1 h was determined as 0.03.
For `COc1ccc(Cn2cc(C(=O)N[C@H]3CCOC[C@@H]3O)c(=O)c3c(F)ccc(F)c32)cc1` (racemic) [Example 6, 1,5-anhydro-2,3-dideoxy-3-({[5,8-difluoro-1-(4-methoxybenzyl)-4-oxo-1,4-dihydroquinolin-3-yl]carbonyl}amino)-DL-threo-pentitol], the pEC50 in data set [1] is 7.80. The “activity (%) at 10 μM” value in data set [1] (CHO-K1 cells expressing hCHRM1) stood at 98%. The partition ratio (Kp) at 0.25 h in data set [2] (iv, 0.2 mg/kg, 0.2 mg/1 mL/kg, sampling time 0.25 hr) is 0.1.
On to `COc1ccc(Cn2cc(C(=O)N[C@H]3CCCC[C@@H]3O)c(=O)c3c(F)ccc(F)c32)cc1` (racemic) [Example 10, 5,8-difluoro-N-[(1,2-trans)-2-hydroxycyclohexyl]-1-(4-methoxybenzyl)-4-oxo-1,4-dihydroquinoline-3-carboxamide], for which the pEC50 in data set [1] is 7.26. Moreover, the “activity (%) at 10 μM” value in data set [1] (CHO-K1 cells expressing hCHRM1) came out at 103%. Besides, the concentration ratio (Kp) at 0.5 h in data set [2] (iv, 0.2 mg/kg, 0.2 mg/1 mL/kg, sampling time 0.5 hr) turned out to be 0.33.
Turning to `COc1ccc(Cn2cc(C(=O)N[C@H]3CCCC[C@@H]3O)c(=O)c3c(F)ccc(F)c32)cc1` [Example 27, 5,8-difluoro-N-[(1S,2S)-2-hydroxycyclohexyl]-1-(4-methoxybenzyl)-4-oxo-1,4-dihydroquinoline-3-carboxamide], in data set [1], the pEC50 is 7.42. In addition, the “activity (%) at 10 μM” value in data set [1] (CHO-K1 cells expressing hCHRM1) came out at 102%.
In the case of `COc1ccc(Cn2cc(C(N)=O)c(=O)c3c(F)ccc(F)c32)cc1` [Example 1, 5,8-difluoro-1-(4-methoxybenzyl)-4-oxo-1,4-dihydroquinoline-3-carboxamide], the pEC50 in data set [1] (inflection point of the concentration-dependent curve, with acetylcholine at EC20 (final 0.6 nM), CHO-K1 cells expressing hCHRM1, read-out: IP value) was 6.20. In data set [1] (CHO-K1 cells expressing hCHRM1), the “activity (%) at 10 μM” value came out at 90%.
For the compound `O=C(N[C@H]1CCCC[C@@H]1O)c1cn(Cc2ccc(-n3cccn3)cc2)c2c(F)ccc(F)c2c1=O` (racemic) [Example 3, 5,8-difluoro-N-[(1,2-trans)-2-hydroxycyclohexyl]-4-oxo-1-[4-(1H-pyrazol-1-yl)benzyl]-1,4-dihydroquinoline-3-carboxamide], in data set [1], the pEC50 is 8.06. Besides, in data set [1] (CHO-K1 cells expressing hCHRM1), the “activity (%) at 10 μM” value is reported as 93%.
